System: maize
Test: Pre-emergence test (Example B2), greenhouse pots, phytotoxicity on maize
Assay type: in vivo
Description: The test plants are sown in pots under greenhouse conditions. A standard soil is used as cultivation substrate. At a pre-emergence stage, the herbicides, both on their own and in admixture with safener, are applied to the soil surface or to cultivated plants seed-dressed with safener. The rates of application depend on the optimum doses ascertained under field conditions or greenhouse conditions. The tests are evaluated after from 2 to 4 weeks (100% action=complete destruction, 0% action=no phytotoxic action). The mixtures used in this test show good results.

SMILES: CCc1cccc(C)c1N(C(=O)CCl)[C@@H](C)COC [S-metolachlor]
- Phytotoxicity on maize (%) 15 days after application (Table B2.1, S-metolachlor 1000 g/ha (EC 960), safener of formula II row prints 1000 g/ha): 7%
- Phytotoxicity on maize (%) 15 days after application (Table B2.1, S-metolachlor 2000 g/ha (EC 960), safener of formula II row prints 2000 g/ha): 20%
- Phytotoxicity on maize (%) 15 days after application (Table B2.1, S-metolachlor 4000 g/ha (EC 960), safener of formula II row prints 4000 g/ha): 40%
- Phytotoxicity on maize (%) 15 days after application (Table B2.1, S-metolachlor 6000 g/ha (EC 960), safener of formula II row prints 6000 g/ha, 100%=complete destruction): 53%

Reference: patent publication US20040167033A1, “Herbicidal composition” (priority 2001, published 2004)
